In patent US20260224589A1 (priority 2023, published 2026):
Read-outs that look alike come from different tables or passages of the source.

Test system: AsPC-1 cells
Experiment: phospho-ERK HTRF assay in AsPC-1 cells, 4 h treatment
Type: cell-based
Settings: Homo sapiens, ASPC1
[1] = AsPC-1, 4H, Table 1a class column, read-out: pERK IC50 activity range (*)
[2] = AsPC-1, 4H, Table 1a, read-out: PERK IC50 (AsPC-1, 4H)
[3] = AsPC-1, 4h, Table 1b, read-out: PERK IC50 (AsPC-1, 4h)

Row | SMILES | IC50 [1] | IC50 [2] | IC50 [3] | further results
1 | CN(C)C(=O)c1nn2c(c1Cl)CN(c1nc(OC[C@@]34CCCN3C[C@H](F)C4)nc3c1CO[C@H](c1c(C(F)(F)F)ccc(I)c1F)C3)CCC2 [compound 219] | > 500 nM | 896 nM | – | –
2 | Cc1cc(N)cc([C@@H]2Cc3nc(OC[C@@]45CCCN4C/C(=C\F)C5)nc(N4CCCn5nc(C(=O)N(C)C)cc5C4)c3CO2)c1C(F)(F)F [compound 302, 5-((S)-7-(5-amino-3-methyl-2-(trifluoromethyl)phenyl)-2-(((S,Z)-2-(fluoromethylene)tetrahydro-1H-pyrrolizin-7a(5H)-yl)methoxy)-7,8-dihydro-5H-pyrano[4,3-d]pyrimidin-4-yl)-N,N-dimethyl-5,6,7,8-tetrahydro-4H-pyrazolo[1,5-a][1,4]diazepine-2-carboxamide] | – | – | < 10 nM | –
3 | CN(C)C(=O)c1nn2c(c1Cl)CN(c1nc(OC[C@@]34CCCN3C[C@H](F)C4)nc3c1CO[C@H](c1cc(N)cc(Cl)c1C(F)(F)F)C3)CCC2 [compound 234, 5-((S)-7-(5-amino-3-chloro-2-(trifluoromethyl)phenyl)-2-(((2R,7aS)-2-fluorotetrahydro-1H-pyrrolizin-7a(5H)-yl)methoxy)-7,8-dihydro-5H-pyrano[4,3-d]pyrimidin-4-yl)-3-chloro-N,N-dimethyl-5,6,7,8-tetrahydro-4H-pyrazolo[1,5-a][1,4]diazepine-2-carboxamide] | – | – | < 10 nM | –
4 | CN(C)C(=O)c1nn2c(c1Cl)CN(c1nc(OC[C@@]34CCCN3C/C(=C\F)C4)nc3c1COC(c1cc(N)cc(Cl)c1C(F)(F)F)C3)CCC2 (some centres unmarked) [compound 242] | – | – | < 10 nM | –
5 | CC#Cc1cc(N)cc([C@@H]2Cc3nc(OC[C@@]45CCCN4C/C(=C\F)C5)nc(N4CCCn5nc(C(=O)N(C)C)c(Cl)c5C4)c3CO2)c1C(F)(F)F [compound 427] | – | – | < 10 nM | –
6 | Cc1c(C(=O)N(C)C)nn2c1CN(c1nc(OC[C@@]34CCCN3C[C@H](F)C4)nc3c1CO[C@H](c1cc(N)cc(Cl)c1C(F)(F)F)C3)CCC2 [compound 414] | – | – | < 10 nM | –
7 | CC#Cc1cc(N)cc([C@@H]2Cc3nc(OC[C@@]45CCCN4C/C(=C\F)C5)nc(N4CCCn5nc(C(=O)N6CCCC6)c(Cl)c5C4)c3CO2)c1C(F)(F)F [compound 430] | – | – | < 10 nM | –
8 | Nc1ccc(C(F)(F)F)c(C2Cc3nc(OC[C@@]45CCCN4C[C@H](F)C5)nc(N4CCNCC(=O)C4)c3CO2)c1F (some centres unmarked) [compound 203] | > 500 nM | > 10000 nM | – | –
9 | Cc1c(C(=O)N(C)C)nn2c1CN(c1nc(OC[C@]34CCCN3C[C@@H](C=C(F)F)C4)nc3c1CO[C@H](c1c(F)c(N)cc(Cl)c1C(F)(F)F)C3)CCC2 [compound 458] | – | – | < 10 nM | –
10 | Cc1cc(N)cc(C2Cc3nc(OC[C@@]45CCCN4C/C(=C\F)C5)nc(N4CCCn5nc(C(=O)N(C)C)c(Cl)c5C4)c3CO2)c1C(F)(F)F (some centres unmarked) [compound 240] | – | – | < 10 nM | –
11 | CN(C)C(=O)c1nn2c(c1Cl)CN(c1nc(OC[C@]34CCCN3C[C@@H](C=C(F)F)C4)nc3c1CO[C@H](c1c(F)c(N)cc(Cl)c1C(F)(F)F)C3)CCC2 [compound 459] | – | – | < 10 nM | –
12 | CN(C)C(=O)c1nn2c(c1Br)CN(c1nc(OC[C@@]34CCCN3C[C@H](F)C4)nc3c1CO[C@H](c1c(C(F)(F)F)ccc(N)c1F)C3)CCC2 [compound 224] | 10 to 30 nM | 22 nM | – | –
13 | CN(C)C(=O)c1nn2c(c1Cl)CN(c1nc(OC[C@@]34CCCN3C/C(=C\F)C4)nc3c1CO[C@H](c1c(F)c(N)cc(Cl)c1Cl)C3)CCC2 [compound 436] | – | – | < 10 nM | –
14 | CN(C)C(=O)c1nn2c(c1Cl)CN(c1nc(OC[C@@]34CCCN3C/C(=C\F)C4)nc3c1CO[C@H](c1cc(N)cc(F)c1C(F)(F)F)C3)CCC2 [compound 410] | – | – | < 10 nM | –
15 | CN1CCOc2c(nn3c2CN(c2nc(OC[C@@]45CCCN4C[C@H](F)C5)nc4c2CO[C@H](c2c(C(F)(F)F)ccc(N)c2F)C4)CCC3)C1=O [212a, 11-((S)-7-(3-amino-2-fluoro-6-(trifluoromethyl)phenyl)-2-(((2R,7aS)-2-fluorotetrahydro-1H-pyrrolizin-7a(5H)-yl)methoxy)-7,8-dihydro-5H-pyrano[4,3-d]pyrimidin-4-yl)-4-methyl-3,4,9,10,11,12-hexahydro-8H-[1,4]diazepino[1′,2′:1,5]pyrazolo[3,4-f][1,4]oxazepin-5(2H)-one] | > 500 nM | 810 nM | – | –
16 | CN(C)C(=O)c1nc2c(s1)CCCN(c1nc(OC[C@@]34CCCN3C[C@H](F)C4)nc3c1CO[C@H](c1c(C(F)(F)F)ccc(N)c1F)C3)C2 [compound 202] | > 500 nM | > 10000 nM | – | –
17 | C[C@@]1(O)COCCN(c2nc(OC[C@]34CCCN3C[C@@H](C=C(F)F)C4)nc3c2CO[C@H](c2cc(N)cc(Cl)c2C(F)(F)F)C3)C1 [compound 457] | – | – | < 10 nM | –

Row | SMILES | IC50 [1] | IC50 [2] | IC50 [3] | further results
18 | CCc1c(C(=O)N(C)C)nn2c1CN(c1nc(OC[C@@]34CCCN3C/C(=C\F)C4)nc3c1CO[C@H](c1cc(N)cc(Cl)c1C(F)(F)F)C3)CCC2 [compound 425] | – | – | < 10 nM | –
19 | CN(C)C(=O)c1nn2c(c1Cl)CN(c1nc(OC[C@@]34CCCN3CC(=C(F)F)C4)nc3c1COC(c1cc(N)cc(F)c1C(F)(F)F)C3)CCC2 (some centres unmarked) [compound 238] | 10 to 30 nM | 29.3 nM | – | –
20 | CCN(CC)C(=O)c1nn2c(c1Cl)CN(c1nc(OC[C@@]34CCCN3C/C(=C\F)C4)nc3c1CO[C@H](c1c(F)c(N)cc(Cl)c1C(F)(F)F)C3)CCC2 [compound 434] | – | – | < 10 nM | –
21 | CN(C)C(=O)c1nn2c(c1Cl)CN(c1nc(OC[C@@]34CCCN3CC(=C(F)F)C4)nc3c1CO[C@H](c1c(F)c(N)cc(Cl)c1C(F)(F)F)C3)CCC2 [248a, 5-((S)-7-(3-amino-5-chloro-2-fluoro-6-(trifluoromethyl)phenyl)-2-(((S)-2-(difluoromethylene)tetrahydro-1H-pyrrolizin-7a(5H)-yl)methoxy)-7,8-dihydro-5H-pyrano[4,3-d]pyrimidin-4-yl)-3-chloro-N,N-dimethyl-5,6,7,8-tetrahydro-4H-pyrazolo[1,5-a][1,4]diazepine-2-carboxamide] | – | – | < 10 nM | –
22 | CN(C(=O)c1nn2c(c1Cl)CN(c1nc(OC[C@@]34CCCN3C[C@H](F)C4)nc3c1COC(c1c(C(F)(F)F)ccc(N)c1F)C3)CCC2)C1CC1 (stereo partly drawn) [compound 232, 5-(7-(3-amino-2-fluoro-6-(trifluoromethyl)phenyl)-2-(((2R,7aS)-2-fluorotetrahydro-1H-pyrrolizin-7a(5H)-yl)methoxy)-7,8-dihydro-5H-pyrano[4,3-d]pyrimidin-4-yl)-3-chloro-N-cyclopropyl-N-methyl-5,6,7,8-tetrahydro-4H-pyrazolo[1,5-a][1,4]diazepine-2-carboxamide] | 101 to 500 nM | 247 nM | – | IC50 (AsPC-1, 4H, individual (R) diastereomer of Ex. 232, read-out: PERK IC50 (AsPC-1, 4H) nM, individual diastereomer (R)): > 1000 nM; IC50 (AsPC-1, 4H, individual (S) diastereomer of Ex. 232, read-out: PERK IC50 (AsPC-1, 4H) nM, individual diastereomer (S)): 166 nM
23 | CON(C)C(=O)c1nn2c(c1Cl)CN(c1nc(OC[C@@]34CCCN3C/C(=C\F)C4)nc3c1COC(c1c(F)c(N)cc(Cl)c1C(F)(F)F)C3)CCC2 (some centres unmarked) [compound 463] | 10 to 30 nM | – | – | –
24 | CN(C)C(=O)c1nn2c(c1Cl)CN(c1nc(OC[C@@]34CCCN3CC(=C(F)F)C4)nc3c1CO[C@@H](c1c(C(F)(F)F)ccc(N)c1F)C3)CCC2 [231b, 5-((R)-7-(3-amino-2-fluoro-6-(trifluoromethyl)phenyl)-2-(((S)-2-(difluoromethylene)tetrahydro-1H-pyrrolizin-7a(5H)-yl)methoxy)-7,8-dihydro-5H-pyrano[4,3-d]pyrimidin-4-yl)-3-chloro-N,N-dimethyl-5,6,7,8-tetrahydro-4H-pyrazolo[1,5-a][1,4]diazepine-2-carboxamide] | > 500 nM | > 10000 nM | – | –
25 | CN(C)C(=O)c1nn2c(c1Cl)CN(c1nc(OC[C@]34CCCN3C[C@@H](C=C(F)F)C4)nc3c1COC(c1c(F)c(N)cc(Cl)c1C(F)(F)F)C3)CCC2 (some centres unmarked) [compound 460] | – | – | < 10 nM | –
26 | Nc1cc(Cl)c(C(F)(F)F)c([C@@H]2Cc3nc(OC[C@@]45CCCN4C/C(=C\F)C5)nc(N4CCCn5nc(C(=O)N6CCCC6)c(Cl)c5C4)c3CO2)c1 [compound 422] | – | – | < 10 nM | –
27 | CON(C)C(=O)c1nn2c(c1Cl)CN(c1nc(OC[C@@]34CCCN3C[C@H](F)C4)nc3c1COC(c1cc(N)cc(Cl)c1C(F)(F)F)C3)CCC2 (some centres unmarked) [compound 452] | 10 to 30 nM | – | – | –
28 | Nc1ccc(C(F)(F)F)c([C@@H]2Cc3nc(OC[C@@]45CCCN4C[C@H](F)C5)nc(N4CCNC(=O)CC4)c3CO2)c1F [compound 205] | > 500 nM | > 10000 nM | – | –
29 | Cc1cc(N)cc([C@@H]2Cc3nc(OC[C@@]45CCCN4C/C(=C\F)C5)nc(N4CCCn5nc(C(=O)N6CCCC6)cc5C4)c3CO2)c1C(F)(F)F [compound 404] | 10 to 30 nM | – | – | –
30 | CC#Cc1cc(N)cc([C@@H]2Cc3nc(OC[C@@]45CCCN4C/C(=C\F)C5)nc(N4CCCn5nc(C(=O)N6CCCC6)c(C)c5C4)c3CO2)c1C(F)(F)F [compound 429] | – | – | < 10 nM | –
31 | CN(C)C(=O)c1nn2c(c1Cl)CN(c1nc(OC[C@@]34CCCN3C/C(=C\F)C4)nc3c1CO[C@H](c1cc(N)cc(Cl)c1C(F)(F)F)C3)CCC2 [compound 235, 5-((S)-7-(5-amino-3-chloro-2-(trifluoromethyl)phenyl)-2-(((S,Z)-2-(fluoromethylene)tetrahydro-1H-pyrrolizin-7a(5H)-yl)methoxy)-7,8-dihydro-5H-pyrano[4,3-d]pyrimidin-4-yl)-3-chloro-N,N-dimethyl-5,6,7,8-tetrahydro-4H-pyrazolo[1,5-a][1,4]diazepine-2-carboxamide] | – | – | < 10 nM | –
32 | CN(C)C(=O)c1nn2c(c1Cl)CN(c1nc(OC[C@@]34CCCN3C[C@H](F)C4)nc3c1CO[C@@H](c1c(C(F)(F)F)cc(F)c(N)c1F)C3)CCC2 [216b] | > 500 nM | > 10000 nM | – | –
33 | Cc1c(C(=O)N(C)C)nn2c1CN(c1nc(OC[C@@]34CCCN3C[C@H](F)C4)nc3c1CO[C@H](c1c(F)c(N)cc(Cl)c1C(F)(F)F)C3)CCC2 [compound 441] | – | – | < 10 nM | –
34 | CN(C)C(=O)c1nn2c(c1Cl)CN(c1nc(OC[C@@]34CCCN3C[C@H](F)C4)nc3c1CO[C@H](c1c(C(F)(F)F)ccc(Br)c1F)C3)CCC2 [compound 220] | > 500 nM | 1040 nM | – | –
